Test results published in patent US8497240B2 (priority 2006, dated 2013).
Where two headings read alike, the source gives them in different places.

Experiments:
[1] = assay type: in vivo, NIH/Swiss mice
Experimental: (§1) In FIG. 3A, bars represent mean±sd, n=6-10. […] Gavage (1.5 g/kg) was given at t=0, Sample was taken at t=30 min. […] In FIG. 3B, points represent mean±sem, n=8-15.
Peptide was injected IP at t=−5 minutes into 4-hour fasted NIH/Swiss female mice. […] In FIG. 17 points represent mean+/−sem. […] Samples were taken at t=60, t=120 and t=180.

[2] = assay type: in vivo, NIH/Swiss mice; conditions: 80 nmol/kg, AUC240
Experimental: as §1
Points represent mean±sem.

CC[C@H](C)[C@H](NC(=O)[C@H](CO)NC(=O)[C@H](Cc1ccc(O)cc1)NC(=O)[C@H](CC(=O)O)NC(=O)[C@H](CO)NC(=O)[C@@H](NC(=O)[C@H](Cc1ccccc1)NC(=O)[C@@H](NC(=O)CNC(=O)[C@H](CCC(=O)O)NC(=O)[C@@H](C)NC(=O)[C@@H](N)Cc1ccc(O)cc1)[C@@H](C)O)[C@@H](C)CC)C(=O)N[C@@H](C)C(=O)N[C@@H](CCSC)C(=O)N[C@@H](CC(=O)O)C(=O)N[C@@H](CCCCN)C(=O)N[C@H](C(=O)N[C@@H](Cc1c[nH]cn1)C(=O)N[C@@H](CCC(N)=O)C(=O)N[C@@H](CCC(N)=O)C(=O)N[C@@H](CC(=O)O)C(=O)N[C@@H](Cc1ccccc1)C(=O)N[C@H](C(=O)N[C@@H](CC(N)=O)C(=O)N[C@@H](Cc1c[nH]c2ccccc12)C(=O)N[C@@H](CC(C)C)C(=O)N[C@@H](CC(C)C)C(=O)N[C@@H](C)C(=O)N[C@@H](CCC(N)=O)C(=O)N[C@@H](CCCCN)C(=O)N[C@H](C(=O)N[C@@H](CO)C(=O)N1CCC[C@H]1C(=O)N1CCC[C@H]1C(=O)N1CCC[C@H]1C(N)=O)[C@@H](C)O)C(C)C)[C@@H](C)CC [0601GIP4345]
OGTT/GL (%) ([1]; 30 nmol/kg): −14 @ 30 nmol/kg %
OGTT/GL (%) ([1]; 250 nmol/kg): −25 @ 250 nmol/kg, %
Basal Glucose Lowering at Peptide Conc. of 80 nmol/kg [2]: −11%, AUC240

CC[C@H](C)[C@H](NC(=O)[C@H](CO)NC(=O)[C@H](Cc1ccc(O)cc1)NC(=O)[C@H](CC(=O)O)NC(=O)[C@H](CO)NC(=O)[C@@H](NC(=O)[C@H](Cc1ccccc1)NC(=O)[C@@H](NC(=O)CNC(=O)[C@H](CCC(=O)O)NC(=O)[C@@H](C)NC(=O)[C@@H](N)Cc1ccc(O)cc1)[C@@H](C)O)[C@@H](C)CC)C(=O)N[C@@H](C)C(=O)N[C@@H](CCSC)C(=O)N[C@@H](CC(=O)O)C(=O)N[C@@H](CCCCN)C(=O)N[C@H](C(=O)N[C@@H](Cc1c[nH]cn1)C(=O)N[C@@H](CCC(N)=O)C(=O)N[C@@H](CCC(N)=O)C(=O)N[C@@H](CC(=O)O)C(=O)N[C@@H](Cc1ccccc1)C(=O)N[C@H](C(=O)N[C@@H](CC(N)=O)C(=O)N[C@@H](Cc1c[nH]c2ccccc12)C(=O)N[C@@H](CC(C)C)C(=O)N[C@@H](CC(C)C)C(=O)N[C@@H](C)C(=O)N[C@@H](CCC(N)=O)C(=O)N[C@@H](CCCCN)C(=O)N1CCC[C@H]1C(=O)N[C@@H](CCCCN)C(=O)N[C@@H](CC(C)C)C(=O)N[C@H](C(=O)N[C@@H](CCCCN)C(=O)N[C@@H](CC(C)C)C(=O)N[C@H](C(=O)N[C@@H](CCCCN)C(=O)N[C@@H](CO)C(N)=O)[C@@H](C)CC)[C@@H](C)CC)C(C)C)[C@@H](C)CC [0601GIP4346]
OGTT/GL (%) ([1]; 30 nmol/kg): −20, 30%
Basal Glucose Lowering at Peptide Conc. of 80 nmol/kg [2]: −10%, AUC240

CC[C@H](C)[C@H](NC(=O)[C@H](CO)NC(=O)[C@H](Cc1ccc(O)cc1)NC(=O)[C@H](CC(=O)O)NC(=O)[C@H](CO)NC(=O)[C@@H](NC(=O)[C@H](Cc1ccccc1)NC(=O)[C@@H](NC(=O)CNC(=O)[C@H](CCC(=O)O)NC(=O)[C@@H](C)NC(=O)[C@H](Cc1ccc(O)cc1)NC)[C@@H](C)O)[C@@H](C)CC)C(=O)N[C@@H](C)C(=O)N[C@@H](CCSC)C(=O)N[C@@H](CC(=O)O)C(=O)N[C@@H](CCCCN)C(=O)N[C@H](C(=O)N[C@@H](Cc1c[nH]cn1)C(=O)N[C@@H](CCC(N)=O)C(=O)N[C@@H](CCC(N)=O)C(=O)N[C@@H](CC(=O)O)C(=O)N[C@@H](Cc1ccccc1)C(=O)N[C@H](C(=O)N[C@@H](CC(N)=O)C(=O)N[C@@H](Cc1c[nH]c2ccccc12)C(=O)N[C@@H](CC(C)C)C(=O)N[C@@H](CC(C)C)C(=O)N[C@@H](C)C(=O)N[C@@H](CCC(N)=O)C(=O)N[C@@H](CCCCN)C(=O)N1CCC[C@H]1C(=O)N[C@@H](CO)C(=O)N[C@@H](CO)C(=O)NCC(=O)N[C@@H](C)C(=O)N1CCC[C@H]1C(=O)N1CCC[C@H]1C(=O)N1CCC[C@H]1C(=O)N[C@@H](CO)C(N)=O)C(C)C)[C@@H](C)CC [Compound 0601GIP4238]
OGTT/GL (%) ([1]; 350 nmol/kg): −25%
Basal Glucose Lowering at Peptide Conc. of 80 nmol/kg [2]: −6%, AUC240
